Values quoted from earlier work, collected in patent EP1558263B1, “PROLONGED RELEASE PHARMACEUTICAL COMPOSITION” (Akzo Nobel N.V., priority 2002, dated 2004).
Converted amounts (≈) assume the structure as drawn.

Tested on: Mannheimia haemolytica
Settings: pathogen of respiratory tract infections in cattle

For `CO/N=C(\C(=O)N[C@@H]1C(=O)N2C(C(=O)[O-])=C(C[n+]3cccc4c3CCCC4)CS[C@H]12)c1csc(N)n1` [Cefquinome, cefquinome], the MIC90 is listed as 0.25 µg/mL (≈ 0.473 µM).
